Reference: US20080261994A1, “CYCLOPROPANE COMPOUNDS AND PHARMACEUTICAL USE THEREOF” (Japan Tobacco Inc., priority 2003, published 2008)
Like-named read-outs stand apart in the source and are kept apart here.

Experiments:
Assay type in all cases: biochemical
Recombinant Human MMP-13 = biological target: T1, Recombinant Human MMP-13 (Homo sapiens, UniProt P45452); test: MMP-13 inhibitory activity (MMP-13 specific fluorescent substrate with quencher)
T1 construct: purchased R&D systems 511-MM
How it was run: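 Recombinant human MMP-13 with test compound, reaction started with quenched fluorogenic peptide 7-MCA-Pro-CHA-Gly-NVal-His-Ala-DPA in Tris-HCl buffer, 1 h at 25 °C, stopped with acetic acid. Fluorescence at Ex 325/Em 405 nm; % inhibition versus enzyme-free and inhibitor-free wells, reported as IC50 (μM).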

MMP-1 = biological target: T2, MMP-1 (Homo sapiens, UniProt P03956); test: MMP-1 inhibitory action (Type I collagen Activity Measurement kit, FITC-labeled collagen type I)
T2 sequence (P03956 100-469): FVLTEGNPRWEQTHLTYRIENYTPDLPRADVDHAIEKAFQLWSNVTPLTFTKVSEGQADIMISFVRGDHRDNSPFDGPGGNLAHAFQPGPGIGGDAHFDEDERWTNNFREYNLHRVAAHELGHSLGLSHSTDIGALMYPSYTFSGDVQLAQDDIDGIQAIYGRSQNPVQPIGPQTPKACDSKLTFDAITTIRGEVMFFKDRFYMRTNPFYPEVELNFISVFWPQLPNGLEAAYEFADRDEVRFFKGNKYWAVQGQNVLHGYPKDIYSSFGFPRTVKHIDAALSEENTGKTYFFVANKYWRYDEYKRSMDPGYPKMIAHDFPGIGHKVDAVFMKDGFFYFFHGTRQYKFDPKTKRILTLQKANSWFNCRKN

aggrecanase-1 = biological target: T3, aggrecanase-1 (Homo sapiens, UniProt O75173); test: Aggrecanase-1 inhibitory action (Particle Assay, GAG release from aggrecan-containing polyacrylamide particles)
T3 sequence (O75173 213-837): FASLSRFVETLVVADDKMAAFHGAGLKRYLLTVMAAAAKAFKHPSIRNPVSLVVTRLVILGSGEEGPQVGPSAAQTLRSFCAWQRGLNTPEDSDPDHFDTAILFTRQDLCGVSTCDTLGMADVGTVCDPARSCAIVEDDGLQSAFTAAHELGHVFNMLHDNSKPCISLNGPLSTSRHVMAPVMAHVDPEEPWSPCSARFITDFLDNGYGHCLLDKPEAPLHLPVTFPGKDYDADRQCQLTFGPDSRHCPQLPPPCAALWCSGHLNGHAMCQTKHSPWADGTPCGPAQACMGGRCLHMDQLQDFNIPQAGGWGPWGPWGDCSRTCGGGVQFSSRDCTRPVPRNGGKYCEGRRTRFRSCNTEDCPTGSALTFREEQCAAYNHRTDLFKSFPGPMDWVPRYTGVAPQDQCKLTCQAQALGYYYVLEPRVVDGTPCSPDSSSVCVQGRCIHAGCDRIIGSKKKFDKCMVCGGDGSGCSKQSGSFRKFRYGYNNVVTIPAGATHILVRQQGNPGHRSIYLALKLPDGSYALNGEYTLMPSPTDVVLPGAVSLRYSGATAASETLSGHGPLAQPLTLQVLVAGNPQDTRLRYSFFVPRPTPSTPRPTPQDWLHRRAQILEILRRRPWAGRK
How it was run: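 Enzyme and compound incubated with aggrecan-containing polyacrylamide particles in Tris-HCl buffer at 37° C for 15 h. Released GAG in supernatant measured with 1,9-dimethylmethylene blue at 595 nm against chondroitin sulfate standard; % inhibition from enzyme-free and inhibitor-free wells, reported as TC50 (μM).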

[1] = Experimental Example 3, read-out: IC50 MMP13
[2] = Experimental Example 2, read-out: IC50 MMP1
[3] = Experimental Example 1, read-out: IC50 AG1
[4] = Recombinant Human MMP-13, fluorescent substrate, 25° C. for 1 h, read-out: IC50 MMP13 (Experimental Example 3)
[5] = MMP-1 inhibitory action, FITC-labeled collagen type I, 37° C. for 3 hr, read-out: IC50 MMP1 (Experimental Example 2)
[6] = aggrecanase-1 inhibitory action, read-out: IC50 AG1 (Experimental Example 1)

Row | Structure (SMILES) | IC50 (Recombinant Human MMP-13; [1]) [nM] | IC50 (MMP-1; [2]) [nM] | IC50 (aggrecanase-1; [3]) [nM] | IC50 (Recombinant Human MMP-13; [4]) [nM] | IC50 (MMP-1; [5]) [nM] | IC50 (aggrecanase-1; [6]) [nM]
1 | CC1[C@H](c2ccccc2)[C@]1(NS(=O)(=O)N1CCN(c2ccc(C(F)(F)F)cc2)C(=O)C1)C(=O)O (stereo partly drawn) [Example 2-504] | < 1000 | ≥ 1000 | ≥ 1000 |  |  | 
2 | CN1CCN(c2ccc(C3CC3(NS(=O)(=O)c3ccc(-c4ccc(Cl)cc4)s3)C(=O)O)cc2)CC1 (stereo not drawn) [Example 2-246] |  |  |  | < 1000 | ≥ 10000 | ≥ 1000
3 | COCCN(C)C(=O)c1ccccc1C1CC1(NS(=O)(=O)c1ccc(-c2ccc(Cl)cc2)s1)C(=O)O (stereo not drawn) [Example 2-71] |  |  |  | < 1000 | ≥ 10000 | < 100
4 | CC1(c2cccc(F)c2)CC1(NS(=O)(=O)c1ccc(-c2cc(C(F)(F)F)on2)s1)C(=O)O (stereo not drawn) [Example 2-611] | ≥ 1000 | < 1000 | < 100 |  |  | 
5 | CC(C)C1CC1(NS(=O)(=O)c1ccc(-c2ccc(Cl)cc2)s1)C(=O)O (stereo not drawn) [Example 2-59] |  |  |  | < 1000 | ≥ 10000 | < 1000
6 | C[C@]1(c2ccccc2)C[C@@]1(NS(=O)(=O)c1ccc(-c2ccc(O)cc2)s1)C(=O)O [Example 2-582] | < 1000 | ≥ 1000 | < 1000 |  |  | 
7 | CCCc1cc(-c2ccc(S(=O)(=O)N[C@@]3(C(=O)O)C[C@@H]3c3ccccc3)s2)no1 [Example 2-90] |  |  |  | < 100 | ≥ 1000 | ≥ 1000
8 | CC1[C@H](c2ccccc2)[C@]1(NS(=O)(=O)N1CCN(C(=O)NCc2ccccc2)CC1)C(=O)O (stereo partly drawn) [Example 2-529] | ≥ 1000 | ≥ 1000 | ≥ 1000 |  |  | 
9 | CN(C)C(=O)c1ccccc1C1CC1(NS(=O)(=O)c1ccc(-c2ccc(Cl)cc2)s1)C(=O)O (stereo not drawn) [Example 2-215] |  |  |  | < 1000 | ≥ 10000 | < 100
10 | CC1[C@H](c2ccccc2)[C@]1(NS(=O)(=O)c1ccc(-c2nc3ccccc3[nH]2)s1)C(=O)O (stereo partly drawn) [Example 2-584] | < 100 | ≥ 1000 | < 1000 |  |  | 
11 | CC1[C@H](c2ccccc2)[C@]1(NS(=O)(=O)c1ccc(-c2cn(C)cn2)s1)C(=O)O (stereo partly drawn) [Example 2-450] | < 1000 | ≥ 10000 | < 1000 |  |  | 
12 | O=C(O)c1ccc(S(=O)(=O)NC2(C(=O)O)CC2c2ccccc2)s1 (stereo not drawn) [Example 2-103] |  |  |  | ≥ 10000 | ≥ 10000 | ≥ 10000
13 | Cn1nc(-c2ccc(S(=O)(=O)NC3(C(=O)O)CC3c3ccccc3)s2)cc1C(F)(F)F (stereo not drawn) [Example 2-16] |  |  |  | < 1000 | ≥ 10000 | ≥ 10000
14 | CC1(C)COC(c2ccc(S(=O)(=O)N[C@@]3(C(=O)O)C[C@@H]3c3ccccc3)s2)=N1 [Example 2-54] |  |  |  | ≥ 10000 | ≥ 10000 | ≥ 1000
15 | CC1[C@H](c2ccccc2)[C@]1(NS(=O)(=O)c1ccc2c(c1)Cc1cc(Cl)ccc1-2)C(=O)O (stereo partly drawn) [Example 2-569] | < 100 | < 1000 | < 100 |  |  | 
16 | C[C@@H]1[C@H](c2ccccc2)[C@]1(NS(=O)(=O)c1ccc(-c2cc(C(F)(F)F)on2)s1)C(=O)O [Example 2-7, (1S,2R,3R)-2-methyl-3-phenyl-1-[5-(5-trifluoromethyl-isoxazol-3-yl)-thiophene-2-sulfonylamino]-cyclopropanecarboxylic acid] |  |  |  | < 100 | < 1000 | < 100

Row | Structure (SMILES) | IC50 (Recombinant Human MMP-13; [1]) [nM] | IC50 (MMP-1; [2]) [nM] | IC50 (aggrecanase-1; [3]) [nM] | IC50 (Recombinant Human MMP-13; [4]) [nM] | IC50 (MMP-1; [5]) [nM] | IC50 (aggrecanase-1; [6]) [nM]
17 | CC1[C@H](c2ccccc2)[C@]1(NS(=O)(=O)N1CCC(OCc2cc(Cl)ccc2Cl)C1)C(=O)O (stereo partly drawn) [Example 2-551] | ≥ 1000 | ≥ 1000 | ≥ 1000 |  |  | 
18 | O=C1CCCN1c1cccc(C2CC2(NS(=O)(=O)c2ccc(-c3cc(C(F)(F)F)on3)s2)C(=O)O)c1 (stereo not drawn) [Example 2-276] | < 100 | ≥ 1000 | < 1000 |  |  | 
19 | Cc1cnc(N2CCN(S(=O)(=O)N[C@@]3(C(=O)O)C(C)[C@@H]3c3ccccc3)CC2)s1 (stereo partly drawn) [Example 2-484] | < 1000 | ≥ 10000 | ≥ 1000 |  |  | 
20 | O=C(O)[C@]1(NS(=O)(=O)c2ccc(-c3ccc(Cl)cc3)s2)C[C@@H]1c1cccc(CO)c1 [Example 2-182] |  |  |  | < 100 | ≥ 10000 | < 100
21 | CC1[C@H](c2ccccc2)[C@]1(NS(=O)(=O)N1CCN(c2ccc(Cl)cc2)CC1)C(=O)O (stereo partly drawn) [Example 2-426] | < 100 | ≥ 1000 | < 1000 |  |  | 
22 | O=C(Cc1cccc(C2CC2(NS(=O)(=O)c2ccc(-c3ccc(Cl)cc3)s2)C(=O)O)c1)N1CCOCC1 (stereo not drawn) [Example 2-190] |  |  |  | < 100 | ≥ 1000 | < 100
23 | O=C(O)[C@]1(NS(=O)(=O)c2ccc3c(c2)Cc2cc(F)ccc2-3)C[C@@H]1c1ccccc1 [Example 2-141] |  |  |  | < 100 | ≥ 1000 | < 1000
24 | Cn1cc(-c2ccc(S(=O)(=O)N[C@@]3(C(=O)O)C[C@@H]3c3ccccc3)s2)cn1 [Example 2-387] | < 1000 | ≥ 10000 | ≥ 1000 |  |  | 
25 | COCc1cccc(C2CC2(NS(=O)(=O)c2ccc(-c3ccc(Cl)cn3)s2)C(=O)O)c1 (stereo not drawn) [Example 2-57] |  |  |  | < 100 | ≥ 10000 | < 1000
26 | O=C(O)[C@]1(NS(=O)(=O)c2ccc(-c3noc(C(F)(F)C(F)(F)F)n3)s2)C[C@@H]1c1ccccc1 [Example 2-45] |  |  |  | ≥ 1000 | ≥ 10000 | ≥ 1000
27 | O=C(O)C1(NS(=O)(=O)c2ccc(-c3ccc(Cl)cc3)s2)CC1c1cccc(CO)c1 (stereo not drawn) [Example 1-134] |  |  |  | < 100 | ≥ 1000 | < 100
28 | O=C(O)C1(NS(=O)(=O)c2ccc(-c3ccc(Cl)cc3)s2)CC1(COCc1ccccc1)c1ccccc1 (stereo not drawn) [Example 2-356] | < 1000 | < 1000 | < 1000 |  |  | 
29 | O=C(O)C1(NS(=O)(=O)c2ccc(-c3ccc(Cl)cn3)s2)CC1c1ccccc1CO (stereo not drawn) [Example 2-63] |  |  |  | < 100 | ≥ 1000 | < 100
30 | COC(=O)N1CC=C(c2ccc(S(=O)(=O)N[C@@]3(C(=O)O)C[C@@H]3c3ccccc3)s2)CC1 [Example 2-3, 4-[5-((1S,2R)-1-carboxy-2-phenyl-cyclopropanesulfamoyl)-thiophene-2-yl]-3,6-dihydro-2H-pyridin-1-carboxylic acid methyl ester] |  |  |  | ≥ 1000 | ≥ 10000 | ≥ 1000
31 | O=C(O)C1(NS(=O)(=O)N2CCc3c([nH]c4ccccc34)C2)CC1c1ccccc1 (stereo not drawn) [Example 2-125] |  |  |  | ≥ 10000 | ≥ 10000 | ≥ 10000
32 | CCOC(=O)c1cc(-c2ccc(S(=O)(=O)N[C@@]3(C(=O)O)C(C)[C@@H]3c3ccccc3)s2)no1 (stereo partly drawn) [Example 2-555] | < 1000 | ≥ 1000 | < 1000 |  |  | 
